These results are taken from US9399904B2, “Oil recovery system and method” (SHELL OIL COMPANY, priority 2013, dated 2016).

This data set can be described thus: Oil recovery from oil saturated formation core by brine displacement followed by DMS displacement. Particulars: after waterflooding with brine. The procedure:
Incremental recovery of oil from a formation core using an oil recovery formulation consisting of dimethyl sulfide following oil recovery from the core by water-flooding was measured to evaluate the effectiveness of DMS as a tertiary oil recovery agent.
Two 5.02 cm long Berea sandstone cores with a core diameter of 3.78 cm and a permeability between 925 and 1325 mD were saturated with a brine having a composition as set forth in Table 7.
After saturation of the cores with brine, the brine was displaced by a Middle Eastern Asphaltic crude oil having the characteristics as set forth above in Table 3 to saturate the cores with oil.
Oil was recovered from each oil saturated core by the addition of brine to the core under pressure and by subsequent addition of DMS to the core under pressure. Each core was treated as follows to determine the amount of oil recovered from the core by addition of brine followed by addition of DMS. Oil was initially displaced from the core by addition of brine to the core under pressure. A confining pressure of 1 MPa was applied to the core during addition of the brine, and the flow rate of brine to the core was set at 0.05 ml/min. The core was maintained at a temperature of 50° C. during displacement of oil from the core with brine. […]

On to `CSC` [Dimethyl Sulfide, dimethyl sulfide], for which the “oil recovered, of the oil remaining in the core after the waterflood” value is reported as “approximately 60%”.
